± gives the standard deviation of the averaged measurements.
Test system: HepaRG
Assay: LDH release cytotoxicity, % of total lysis control; higher = more cytotoxic
Settings: 48 h
Outline: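 Single-lot HepaRG cells in collagen I-coated 96-well plates were treated for 48 h in serum-free induction medium containing 0.5% DMSO with test chemicals in eight-point half-log series up to 100 µM. For total lysis, wells received 0.1% Triton X. LDH in 50 µL spent medium was assayed by resorufin fluorescence with CytoTox-ONE. Percent cytotoxicity was normalized to the on-plate vehicle and total lysis controls, with duplicates averaged.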

Row | SMILES | LDH release cytotoxicity (0.03162 µM) | LDH release cytotoxicity (0.1 µM) | LDH release cytotoxicity (0.3162278 µM) | LDH release cytotoxicity (1 µM) | LDH release cytotoxicity (3.16228 µM) | LDH release cytotoxicity (10 µM) | LDH release cytotoxicity (31.6228 µM) | LDH release cytotoxicity (100 µM) | other results
1 | CC(=O)N1CCN(c2ccc(OCC3COC(Cn4ccnc4)(c4ccc(Cl)cc4Cl)O3)cc2)CC1 (stereo not drawn) [Ketoconazole] | -3.06 ± 0.81% | -3.11 ± 0.33% | -2.22 ± 0.27% | -2.59 ± 0.32% | -2.26 ± 0.88% | 2.6 ± 2.2% | 1.63 ± 0.66% | 80.8 ± 7.1% | –
2 | O=C(CCCCCCCCc1cccnc1)N1CCC(C=C(c2ccccc2)c2ccccc2)CC1 [Ro 23-7637] | 0.3 ± 0.18% | -1.044 ± 0.0079% | -0.912 ± 1.2% | -1.28 ± 0.79% | -1.65 ± 0.1% | -1.03 ± 0.15% | 11.7 ± 0.14% | 63.3 ± 1.2% | –
3 | CCOC(=O)C(Cl)Cc1cc(-n2nc(C)n(C(F)F)c2=O)c(F)cc1Cl (stereo not drawn) [Carfentrazone-ethyl] | -0.276 ± 0.32% | -1.32 ± 0.6% | -0.782 ± 0.36% | -0.573 ± 0.12% | -0.524 ± 0.13% | -0.0179 ± 0.2% | -0.285 ± 0.48% | 1.22 ± 0.5% | –
4 | CCCCCCCCCCC [Undecane] | – | -0.1 ± 0.21% | – | -2.3 ± 0.12% | -2.08 ± 1.2% | -0.723 ± 1.2% | -0.989 ± 1.3% | 1.06 ± 0.61% | LDH release cytotoxicity (0.031623 µM): -1.34 ± 0.15%; LDH release cytotoxicity (0.316228 µM): -2.37 ± 1.8%
5 | CCCCC(CC)C(=O)OCCOCCOCCOC(=O)C(CC)CCCC (stereo not drawn) [Triethylene glycol bis(2-ethylhexanoate)] | -2.57 ± 0.42% | -3.93 ± 0.075% | -3.45 ± 0.14% | -3.69 ± 0.87% | -3.81 ± 1.2% | -4.01 ± 1.4% | -5.53 ± 4% | -1.89 ± 0.23% | –
6 | OC(CCl)CCl [1,3-Dichloro-2-propanol] | -0.194 ± 0.51% | -0.771 ± 0.2% | -1.03 ± 0.57% | -0.871 ± 0.15% | -0.223 ± 0.23% | -0.32 ± 0.6% | 0.161 ± 0.38% | -0.702 ± 0.99% | –
7 | CCOP(=S)(OCC)Oc1nc(Cl)c(Cl)cc1Cl [Chlorpyrifos] | 0.564 ± 0.48% | -0.761 ± 0.45% | -1.52 ± 0.69% | -1.1 ± 0.089% | -0.11 ± 0.44% | -0.852 ± 0.46% | -0.29 ± 0.55% | 0.964 ± 0.32% | –
8 | CCCCCCCCCCCCc1cccc(S(=O)(=O)O)c1 [Dodecylbenzene sulfonate triethanolamine(1:1)] | – | – | – | – | – | – | – | – | LDH release cytotoxicity (0.02846 µM): -1.49 ± 0.8%; LDH release cytotoxicity (0.09 µM): -0.848 ± 1.3%; LDH release cytotoxicity (0.284605 µM): -1.53 ± 0.58%; LDH release cytotoxicity (0.9 µM): -1.22 ± 0.78%; LDH release cytotoxicity (2.84605 µM): -0.852 ± 0.19%; LDH release cytotoxicity (9 µM): -1.11 ± 0.016%; LDH release cytotoxicity (28.4605 µM): -0.984 ± 0.56%; LDH release cytotoxicity (90 µM): 5.69 ± 0.45%
9 | Cc1ccccc1O [o-Cresol] | -1.5 ± 0.25% | -1.22 ± 0.88% | -1.45 ± 0.22% | -2.213 ± 0.0064% | -1.71 ± 0.043% | -0.686 ± 0.64% | -0.0502 ± 0.045% | 12.99 ± 0.038% | –
10 | Clc1ccccc1-c1nnc(-c2ccccc2Cl)nn1 [Clofentezine] | -1.43 ± 0.094% | -0.835 ± 0.41% | -0.246 ± 0.27% | -1.9 ± 0.72% | -0.967 ± 0.31% | -1.22 ± 0.43% | -0.912 ± 0.23% | 0.757 ± 0.29% | –
11 | CC(O)CN(CCN(CC(C)O)CC(C)O)CC(C)O (stereo not drawn) [1,1',1'',1'''-(Ethanediylnitrilo)tetrakis(2-propanol)] | -1.14 ± 0.41% | -1.86 ± 1.1% | -1.7 ± 0.17% | -2.22 ± 0.98% | -2.41 ± 0.2% | -1.35 ± 1.4% | 5.57 ± 1.1% | 18.7 ± 1.4% | –
12 | O=C(NS(=O)(=O)C=Cc1cccs1)c1ccc(F)cc1Br | -1.33 ± 0.59% | -1.47 ± 0.055% | -1.39 ± 0.25% | -2.27 ± 0.8% | -1.8 ± 0.55% | -1.418 ± 0.0065% | -0.73 ± 0.11% | -0.319 ± 0.11% | –
13 | CCC(C)Nc1c([N+](=O)[O-])cc(C(C)(C)C)cc1[N+](=O)[O-] (stereo not drawn) [Butralin] | – | -2.37 ± 1.2% | – | -1.89 ± 1.2% | -2.08 ± 0.85% | -2.15 ± 1.1% | -1.93 ± 1.3% | -1.58 ± 0.34% | LDH release cytotoxicity (0.031623 µM): -1.24 ± 0.48%; LDH release cytotoxicity (0.316228 µM): -1.26 ± 1%
14 | OCC(CO)n1cnc(-c2ccc(F)cc2)c1-c1ccnc(Oc2ccccc2)n1 | – | – | – | – | – | – | – | – | LDH release cytotoxicity (0.029093 µM): -1.79 ± 1.4%; LDH release cytotoxicity (0.092 µM): -1.44 ± 0.51%; LDH release cytotoxicity (0.29093 µM): -0.719 ± 2.1%; LDH release cytotoxicity (0.92 µM): -1.96 ± 0.076%; LDH release cytotoxicity (2.9092954 µM): -2.48 ± 0.61%; LDH release cytotoxicity (9.2 µM): -2.62 ± 0.29%; LDH release cytotoxicity (29.093 µM): 0.252 ± 0.39%; LDH release cytotoxicity (92 µM): 51.2 ± 11%
15 | Cc1nccn1-c1ccc(Sc2cccc(C3(C(N)=O)CCOCC3)c2)cc1 | -2.79 ± 0.052% | -3.28 ± 1.4% | -2.87 ± 1% | -3.4 ± 0.34% | -2.44 ± 0.034% | 7.65 ± 1.9% | 31.9 ± 0.88% | 42.52 ± 0.32% | –
16 | COc1ccc2cc(S(=O)(=O)NC(CC(=O)NC(Cc3ccc(CN4C(C)CCCC4C)cc3)C(=O)N(C)C(C)C)c3ccc4c(c3)OCO4)ccc2c1 (stereo not drawn) | – | – | – | – | – | – | – | – | LDH release cytotoxicity (0.0301998 µM): -0.793 ± 0.59%; LDH release cytotoxicity (0.0955 µM): -1.98 ± 1.2%; LDH release cytotoxicity (0.301997 µM): -1.26 ± 0.36%; LDH release cytotoxicity (0.955 µM): -1.65 ± 0.66%; LDH release cytotoxicity (3.01998 µM): -1.13 ± 0.075%; LDH release cytotoxicity (9.55 µM): 1.45 ± 0.6%; LDH release cytotoxicity (30.199752 µM): 70.28 ± 0.7%; LDH release cytotoxicity (95.5 µM): 80.2 ± 1%
17 | Cc1c(-c2cccnc2)c2ccccc2n1CCCCC(=O)O | -1.92 ± 0.15% | -0.948 ± 0.94% | -2.28 ± 1.1% | -1.9 ± 1.2% | -1.67 ± 3.2% | -1.54 ± 2.1% | -1.64 ± 0.83% | 4.56 ± 1.8% | –
18 | Cc1c2ccccc2c(C)c2c1ccc1ccccc12 [7,12-Dimethylbenz(a)anthracene] | -1.46 ± 0.43% | -1.68 ± 0.46% | -1.43 ± 0.069% | -1.27 ± 1.4% | -1.45 ± 0.084% | -1.64 ± 0.1% | 1.86 ± 0.39% | -0.663 ± 0.032% | –
19 | ClC1=C(Cl)C2(Cl)C3C(Cl)C(Cl)CC3C1(Cl)C2(Cl)Cl (stereo not drawn) [Chlordane] | -0.889 ± 1.7% | -0.0312 ± 0.73% | -1.4 ± 0.067% | -2.2 ± 0.83% | -1.5 ± 0.36% | -0.57 ± 0.073% | -0.758 ± 0.6% | 12 ± 4.7% | –
20 | OC(Cn1cncn1)(Cn1cncn1)c1ccc(F)cc1F [Fluconazole] | -1.56 ± 0.43% | -0.0671 ± 1.1% | 0.556 ± 0.68% | -0.472 ± 0.33% | 0.965 ± 0.97% | 0.138 ± 0.29% | 0.241 ± 0.57% | 0.712 ± 0.97% | –
21 | Cc1c(F)c(F)c(COC(=O)C2C(C=C(Cl)C(F)(F)F)C2(C)C)c(F)c1F (stereo not drawn) [Tefluthrin] | -0.665 ± 0.058% | -0.785 ± 0.14% | -1.49 ± 0.56% | -1.6 ± 0.5% | -1.72 ± 0.74% | -0.97 ± 0.31% | -0.478 ± 0.69% | -0.883 ± 1% | –
22 | O=C(N[C@H]1CN2CCC1CC2)c1cc2ccoc2cn1 [(R)-N-(Quinuclidin-3-yl)furo(2,3-C)pyridine-5-carboxamide] | -0.025 ± 0.11% | 1.01 ± 0.6% | 0.216 ± 0.84% | 0.437 ± 0.39% | 1.24 ± 0.3% | 0.814 ± 0.5% | 1.28 ± 0.19% | 1.77 ± 0.61% | –
23 | CCC(C)(c1ccc(O)cc1)c1ccc(O)cc1 [Bisphenol B] | -0.0728 ± 0.78% | 0.29 ± 0.38% | 0.714 ± 0.49% | 2.34 ± 1.5% | 1.11 ± 0.43% | 1.29 ± 0.37% | 1.29 ± 0.25% | 4.62 ± 1.9% | –
24 | Brc1ccc(Oc2ccccc2)cc1 [p-Bromodiphenyl ether] | -0.849 ± 0.61% | -1.4 ± 0.68% | -1.66 ± 0.61% | -1.42 ± 0.37% | -0.77 ± 0.066% | -0.841 ± 0.23% | 0.599 ± 0.93% | 3.7 ± 1.8% | –
25 | CN(C)C(=O)Nc1ccc(Cl)cc1 [Monuron] | – | -1.82 ± 0.043% | – | -2.41 ± 0.67% | -2.49 ± 0.18% | -1.39 ± 0.62% | -0.555 ± 1.5% | 0.589 ± 0.75% | LDH release cytotoxicity (0.031623 µM): -1.01 ± 1.8%; LDH release cytotoxicity (0.316228 µM): -2.23 ± 0.4%
26 | O=C1c2ccccc2C(=O)N1CCc1noc(-c2ccc(CN3CCCCCC3)s2)n1 | – | – | – | – | – | – | – | – | LDH release cytotoxicity (0.026721 µM): 1.83 ± 0.47%; LDH release cytotoxicity (0.0845 µM): -0.403 ± 0.25%; LDH release cytotoxicity (0.267212 µM): -0.399 ± 0.032%; LDH release cytotoxicity (0.845 µM): -0.205 ± 0.38%; LDH release cytotoxicity (2.67212 µM): -7.752 ± 0.013%; LDH release cytotoxicity (8.45 µM): 7.6 ± 1.2%; LDH release cytotoxicity (26.7213 µM): 1.47 ± 2.3%; LDH release cytotoxicity (84.5 µM): -1.5 ± 0.19%

— the supplement of paper PMC7840683
